From patent US20260200980A1, “METHODS AND COMPOSITIONS FOR TREATING OCULAR LESIONS” (priority 2022, published 2026)
Values joined by “and” are separate entries in the source; they are usually repeats but may differ in a detail not shown here. Equal values may be shown once. Read-outs that look alike come from different tables or passages of the source. Where no end group is shown, it is not given here.

Key:
ocular lesion [1] = assay: Lesion size in historical (V1-V3) and treatment phase (V3-V9), 2 injections of ONL1204 3 months apart; format: in vivo, human; settings: for % Change Nat His Phase (Using Sqrt Transformation): V1 to V3, 24 weeks before treatment; for % Change Tx Phase (Using Sqrt Transformation) / V1 Lesion Size / V3 Lesion Size / V9 Lesion Size: study eye; for % Change Tx Phase (Using Sqrt Transformation): V3 to V9, 24 weeks; for % Change Tx Phase (Using Sqrt Transformation) / V9 Lesion Size: 2 injections 3 months apart; for V1 Lesion Size: visit 1, start of historical phase, before treatment; for V3 Lesion Size: visit 3, end of historical phase, start of treatment; for V9 Lesion Size: visit 9, 24 weeks after first treatment
Experimental: (§1) Table 1A and 1B show reduced lesion sizes associated with treated eyes at week 24. Percent (%) change is measured relative the untreated fellow eye. […] Table 3A, 3B and 3C show reduced lesion sizes associated with treated eyes (Tables 3A and 3C) in addition to associated historical lesion growth (Tables 3A and 3B). […] For “% Change Based on Sqrt Transformation” and similar measures, the square root of the lesion area was determined and the % difference between the starting value and the last timepoint was calculated. Percent (%) change is measured relative the untreated fellow eye.

[2] = rabbit, in vivo
Experimental: Pharmacokinetic analyses were performed on the vitreous humor concentration data.
Seven animals received a repeat IVT dose at 2 mg/mL (0.1 mg/eye) on Day 90.
Vitreous humor, retina, and choroid were collected on days 1, 7, 14, 28, 42, 61, 90, 97, 151, and 168. Eyes were enucleated, snap frozen using liquid nitrogen, and kept on dry ice or frozen at −80° C. until dissected for collection of aqueous humor, vitreous humor, retina, choroid, iris-ciliary body (ICB), and lens.
To homogenize ocular tissue samples, weighed amounts of control bovine vitreous humor, retina, and choroid were homogenized in USA scientific impact resistant microtubes containing 2.8 mm ceramic beads. Unknown rabbit vitreous humor, retina, and choroid samples were homogenized in USA scientific impact resistant microtubes containing 2.8 mm ceramic beads. […]

visual function = assay: ETDRS Vision (Letters Read), BCVA, in patients treated with ONL1204; format: in vivo, human
ocular lesion [3] = assay: Lesion size in patients 24 weeks after intravitreal ONL1204; format: in vivo, human; settings: for % Change in Lesion Growth: week 24, study eye relative to untreated fellow eye; for % Change Based on Sqrt Transformation / Baseline Lesion Size / Week 24 Lesion Size: study eye; for % Change Based on Sqrt Transformation: baseline to week 24, square root of lesion area; for Baseline Lesion Size: baseline prior to treatment
Experimental: The primary endpoints were the safety profile associated with single and multiple dosing in this study, including: adverse event reporting, clinical evaluations including lesion size and clinical evaluation.
Baseline best lesion size (area in square millimeters) was measured prior to treatment with ONL1204. […] The following doses were evaluated: 50 ug, 100 ug, and 200 ug (micrograms).
as §1

male rabbit NaIO3 model = assay: Sodium iodate (NaIO3) challenge study, duration of protection; format: in vivo; settings: for lesion area vs negative control: NaIO3 challenge Day 4
Experimental: Animals were anesthetized with isoflurane vapors to effect. […] No reflux was noted on the dosing record.
Animals were anesthetized with isoflurane vapors to effect. […] NaIO3 causes one or more regions of atrophy and depigmentation which creates a window into the choroid.
The resulting area was then measured.

[4] = minipig, in vivo
Experimental: Seven animals received a repeat IVT dose at 2 mg/mL (0.1 mg/eye) on Day 90. […] Vitreous humor, retina, and choroid were collected on days 1, 7, 14, 28, and 88.

For HHIYLGAVNYIY-NH2 [ONL1204], the “% Change Nat His Phase (Using Sqrt Transformation)” value (ocular lesion [1]; study eye later given 50 ug) was 5.31% and 1.38%, the “% Change Nat His Phase (Using Sqrt Transformation)” value (ocular lesion [1]; study eye later given 100 ug) was 2.97% and 3.20% and the “% Change Tx Phase (Using Sqrt Transformation)” value (ocular lesion [1]; 50 ug) was 3.74% and 0.05%. For the same substance, the “V1 Lesion Size” value (ocular lesion [1]; 50 ug) was 12.08 mm^2 and 18.41 mm^2, the “V3 Lesion Size” value (ocular lesion [1]; 50 ug) was 13.4 mm^2 and 18.92 mm^2 and the “V9 Lesion Size” value (ocular lesion [1]; 50 ug) was 14.42 mm^2 and 18.94 mm^2. The “% Change Tx Phase (Using Sqrt Transformation)” value (ocular lesion [1]; 100 ug) was 3.37% and 1.39%, the “V1 Lesion Size” value (ocular lesion [1]; 100 ug) was 5.64 mm^2 and 7.7 mm^2 and the “V3 Lesion Size” value (ocular lesion [1]; 100 ug) was 5.98 mm^2 and 8.2 mm^2. The “V9 Lesion Size” value (ocular lesion [1]; 100 ug) was 6.39 mm^2 and 8.43 mm^2, the “detection in retinal tissue as well as the vitreous humor” value [2] was “detected” and the “detection in the vitreous humor” value [2] was “detected”. The “visual function (e.g., BCVA as measured by letters read)” value (visual function; eyes having a patchy lesion) was “improved visual function”, the “ETDRS Vision (Letters Read) Week 1” value (visual function; study eye, 50 μg) was 42 Letters Read and 33 Letters Read and the “ETDRS Vision (Letters Read) Week 2” value (visual function; study eye, 50 μg) was 34 Letters Read and 33 Letters Read. For the same substance, the “ETDRS Vision (Letters Read) Week 4” value (visual function; study eye, 50 μg) was 36 Letters Read and 33 Letters Read, the “ETDRS Vision (Letters Read) Week 12” value (visual function; study eye, 50 μg) was 36 Letters Read and the “ETDRS Vision (Letters Read) Week 24” value (visual function; study eye, 50 μg) was 42 Letters Read and 35 Letters Read. The “ETDRS Vision (Letters Read) Screening/Baseline” value (visual function; study eye, 50 μg, before treatment) was 23 Letters Read and 26 Letters Read, the “ETDRS Vision (Letters Read) Week 1” value (visual function; study eye, 100 μg) was 13 Letters Read and the “ETDRS Vision (Letters Read) Week 2” value (visual function; study eye, 100 μg) was 13 Letters Read and 19 Letters Read. For the same substance, the “ETDRS Vision (Letters Read) Week 12” value (visual function; study eye, 100 μg) was 15 Letters Read and 27 Letters Read, the “ETDRS Vision (Letters Read) Week 24” value (visual function; study eye, 100 μg) was 15 Letters Read and 24 Letters Read and the “ETDRS Vision (Letters Read) Screening/Baseline” value (visual function; study eye, 100 μg, before treatment) was 14 Letters Read and 11 Letters Read. The “ETDRS Vision (Letters Read) Week 1” value (visual function; study eye, 200 μg) was 29 Letters Read and 31 Letters Read, the “ETDRS Vision (Letters Read) Week 2” value (visual function; study eye, 200 μg) was 32 Letters Read and 30 Letters Read and the “ETDRS Vision (Letters Read) Week 4” value (visual function; study eye, 200 μg) was 30 Letters Read and 38 Letters Read. For the same substance, the “ETDRS Vision (Letters Read) Week 12” value (visual function; study eye, 200 μg) was 28 Letters Read and 41 Letters Read, the “ETDRS Vision (Letters Read) Week 24” value (visual function; study eye, 200 μg) was 26 Letters Read and 40 Letters Read and the “ETDRS Vision (Letters Read) Baseline” value (visual function; study eye, 200 μg, baseline visit, on a different day from screening, before treatment) was 25 Letters Read. For the same substance, the “ETDRS Vision (Letters Read) Screening/Baseline” value (visual function; study eye, 200 μg, before treatment) was 39 Letters Read, the “ETDRS Vision (Letters Read) Screening” value (visual function; study eye, 200 μg, screening visit, on a different day from baseline, before treatment) was 19 Letters Read and the “% Change in Lesion Growth” value (ocular lesion [3]; 50 ug) was −45%. For the same substance, the “% Change in Lesion Growth” value (ocular lesion [3]; 100 ug) was −27% and −32%, the “% Change in Lesion Growth” value (ocular lesion [3]; 200 ug) was −57% and −53% and the lesion size growth (ocular lesion [3]; all patients, doses 50, 100 and 200 ug, compared to untreated fellow eye) was “reduction in lesion size growth”. The “% Change Based on Sqrt Transformation” value (ocular lesion [3]; 50 ug) was 4.14% and 6.95%, the “Baseline Lesion Size” value (ocular lesion [3]; 100 ug intravitreal) was 20.1 mm^2 and 24.16 mm^2 and the “Week 24 Lesion Size” value (ocular lesion [3]; 100 ug intravitreal) was 21.2 mm2 and 27.61 mm2. For the same substance, the “% Change Based on Sqrt Transformation” value (ocular lesion [3]; 100 ug) was 2.70% and 6.90%, the “Baseline Lesion Size” value (ocular lesion [3]; 200 ug intravitreal) was 9.37 mm^2 and 9.09 mm^2 and the “Week 24 Lesion Size” value (ocular lesion [3]; 200 ug intravitreal) was 9.81 mm2 and 9.78 mm2. The “% Change Based on Sqrt Transformation” value (ocular lesion [3]; 200 ug) was 2.32% and 3.73%, the “lesion area vs negative control” value (male rabbit NaIO3 model; 25 ug per eye IVT Day 0) was “significantly lower than negative control” and the “lesion area vs negative control” value (male rabbit NaIO3 model; 100 ug per eye IVT Day 0) was “significantly lower than negative control”. For the same substance, the “lesion size vs negative controls and 25 ug group” value (male rabbit NaIO3 model; 100 ug per eye IVT Day 0, NaIO3 challenge Day 14) was “significantly smaller lesion size”, the “lesion size vs negative control animals and 25 ug group” value (male rabbit NaIO3 model; 100 ug per eye IVT Day 0, NaIO3 challenge Day 28) was “significantly smaller lesion size” and the mean lesion size (male rabbit NaIO3 model; across challenge time points) was “substantive reduction”. The “detection in the vitreous humor” value [4] was “detected”.
